One experiment concerns the target T1, Keap1 (Homo sapiens, UniProt Q14145).
T1 construct: GST-Keap1-DGR, residues 315–598 (DGR domain)
Briefly: FCS displacement of TAMRA-Nrf2 ETGE peptide from purified GST-Keap1-DGR; supported by co-IP. In kind it is binding.

In experiment [1] the target is Nrf2 9mer peptide, FITC-labeled (Homo sapiens) (UniProt Q16236). Put plainly: FP. Conditions: cited from earlier work.
The target of experiment [2] is Nrf2 8mer peptide (Homo sapiens). Briefly: SPR. Conditions: cited from earlier work.

T1 sequence (Q14145 315-598): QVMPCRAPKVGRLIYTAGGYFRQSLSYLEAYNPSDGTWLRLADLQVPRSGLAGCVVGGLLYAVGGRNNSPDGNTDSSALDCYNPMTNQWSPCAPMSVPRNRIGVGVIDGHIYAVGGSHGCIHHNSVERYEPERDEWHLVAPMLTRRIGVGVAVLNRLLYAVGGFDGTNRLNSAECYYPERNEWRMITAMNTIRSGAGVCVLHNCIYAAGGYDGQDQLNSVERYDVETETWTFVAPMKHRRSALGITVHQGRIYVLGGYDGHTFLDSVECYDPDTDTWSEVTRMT
Sequence of Keap1 (from UniProt Q14145) (Q14145 whole entry): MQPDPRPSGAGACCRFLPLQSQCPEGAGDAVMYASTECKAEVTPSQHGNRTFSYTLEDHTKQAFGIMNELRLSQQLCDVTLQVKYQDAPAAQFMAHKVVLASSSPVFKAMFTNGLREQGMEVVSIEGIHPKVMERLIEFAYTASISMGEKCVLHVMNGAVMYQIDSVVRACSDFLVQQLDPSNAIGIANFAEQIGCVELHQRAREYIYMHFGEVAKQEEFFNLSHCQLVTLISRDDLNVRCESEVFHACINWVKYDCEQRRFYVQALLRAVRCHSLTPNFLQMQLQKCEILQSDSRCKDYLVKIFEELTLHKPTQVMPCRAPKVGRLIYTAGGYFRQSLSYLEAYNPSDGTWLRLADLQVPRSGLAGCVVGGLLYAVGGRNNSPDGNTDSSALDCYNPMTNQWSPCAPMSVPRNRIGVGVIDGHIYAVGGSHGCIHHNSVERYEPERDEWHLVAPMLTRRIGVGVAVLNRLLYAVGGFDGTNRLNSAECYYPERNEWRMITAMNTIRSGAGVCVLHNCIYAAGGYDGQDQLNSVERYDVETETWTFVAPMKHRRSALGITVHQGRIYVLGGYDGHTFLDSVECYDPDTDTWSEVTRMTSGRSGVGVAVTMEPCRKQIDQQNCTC
Sequence of Nrf2 9mer peptide, FITC-labeled (Homo sapiens) (Q16236 whole entry): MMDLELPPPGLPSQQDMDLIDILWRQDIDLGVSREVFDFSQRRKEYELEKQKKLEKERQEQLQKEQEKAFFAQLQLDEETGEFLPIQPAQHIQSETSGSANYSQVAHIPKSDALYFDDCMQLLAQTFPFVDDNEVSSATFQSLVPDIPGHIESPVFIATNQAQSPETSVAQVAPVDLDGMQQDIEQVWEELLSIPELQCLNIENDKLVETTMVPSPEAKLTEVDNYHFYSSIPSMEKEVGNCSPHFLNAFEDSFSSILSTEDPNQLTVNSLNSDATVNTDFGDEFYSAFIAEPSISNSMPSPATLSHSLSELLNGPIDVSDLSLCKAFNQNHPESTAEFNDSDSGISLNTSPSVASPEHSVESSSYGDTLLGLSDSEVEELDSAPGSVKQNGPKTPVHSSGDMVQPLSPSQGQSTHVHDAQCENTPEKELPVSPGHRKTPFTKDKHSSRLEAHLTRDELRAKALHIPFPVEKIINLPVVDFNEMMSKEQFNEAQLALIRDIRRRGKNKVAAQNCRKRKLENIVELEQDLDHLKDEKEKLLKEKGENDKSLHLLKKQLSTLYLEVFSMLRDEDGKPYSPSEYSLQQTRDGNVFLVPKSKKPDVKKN

In the case of `O=C1C=Cc2cc(Br)ccc2C1=O` [bonaphton, 6-bromo-1,2-naphthoquinone], the IC50 on Keap1 was found to be 37.9 µM. That is a double-digit micromolar value.
For Keap1 (from UniProt Q14145), the Kd in experiment [1] was 0.0651 µM; in experiment [2] it was > 1 µM.
As to chlorophyllin sodium copper salt, the IC50 on Keap1 was 35.7 µM.

The values above are taken from PMC5479848, “Drug-Repositioning Screening for Keap1-Nrf2 Binding Inhibitors using Fluorescence Correlation Spectroscopy” (Scientific Reports, 2017).
